Data published in patent US10588313B1, “Compounds of fatty acids and ammonium fatty acid salts” (Falcon Lab, LLC, priority 2019, dated 2020).

Key:
S. aureous = test: AOAC International Use-Dilution Method, comparison test; details: 2.5% solution
Experimental: In this test, 60 sterilized steel penicylinders are inoculated by soaking in a test culture of the bacteria. The cylinders are then dried in an incubator. After drying, they are submerged in test tubes containing the test substance and allowed to incubate for ten minutes. They are then aseptically transferred to individual tubes containing neutralization/growth medium. The neutralization/growth medium tubes are shaken and incubated. After the incubation period, tubes are qualitatively assessed for growth of the test organism.
AOAC has defined the passing criteria for this test as a disinfectant to be less than or equal to 3 positive carriers out of 60 when testing against S. aureous.

Staphlycoccus aureous = details: even numbered fatty acids C8 to C18; cited from earlier work
Streptococcus Group A = details: even numbered fatty acids C8 to C18; cited from earlier work
Candida albicans = details: even numbered fatty acids C8 to C18; cited from earlier work
[1] = tested on: Pseudomonas aeruginosa 15442; test: ASTM E2315 antibacterial activity; assay type: cell-based; details: 1% dispersion, 30 seconds contact time
Experimental: (§1) A 1:99 mixture of the solid compound described in Experiment 1 was made by adding 0.2 gm. to 19.8 ml. of sterile water. Following ASTM International Method E2315 for assessment of antibacterial activity, 10 ml of this uniform mixture was aliquoted into a sterile vessel to produce a 1% dispersion that was then inoculated with the Gram-positive bacterium Staphylococcus aureus ATCC 6538 at 25° C. for a target concentration of 1×10^6 CFU (cells)/ml. One ml of the inoculated substance was harvested at each contact time and neutralized in 9 ml of D/E broth. Enumerations were performed for each time point using standard microbiologic plating methods. At time zero, the percent reduction in bacteria was already 99.9997%, the limit of detection. The percent reduction at 30 seconds, 2 minutes and 10 minutes were also 99.9997%. When 0.1 ml of the 1% dispersion was diluted with 9.9 ml of sterile water to prepare a 0.1% dispersion and the same tests run, the percent reduction in bacteria count was 99.9997% at the 30-second contact time.
(§2) The 1% dispersion described in Example 3 was contacted with the Gram-negative bacteria Escherichia coli 8739 and Pseudomonas aeruginosa 15442 each in the manner described in Example 2. After 30 seconds of contact time, the reductions of the test bacteria were 99.9996% and 99.995% respectively.

Escherichia coli 8739 = test: ASTM E2315 antibacterial activity; assay type: cell-based; details: 1% dispersion, 30 seconds contact time
Experimental: as §1, §2

[2] = Stability of solid and of water dispersion on storage; assay type: physicochemical; details: no emulsifier or surfactant
Description: The compounds are believed to form as the result of hydrogen bonding wherein a hydrogen atom covalently bonded to nitrogen becomes attracted to the oxygen of the carboxylic acid forming a hydrogen bond.
Since the compounds are stable at ambient temperatures and pressures and exist as non-hygroscopic crystalline solids, they may be transported as 100% active ingredients to their point of use. […] The compounds can be stored and shipped in any type of container, including plastic, paper or cloth bags, metal, glass or plastic. In an embodiment, the compounds can be transported in such containers to the point of use by mixing with water to produce disinfecting compositions.
When the solid compound is mixed with water, it completely distributes in the water to produce a uniform composition in the absence of any emulsifier, surfactant, soap, wetting agent, dispersing agent or suspending agent. The solid compound, while being water-insoluble, remains stable as a dispersion indefinitely.
(§3) A slurry of white solid formed immediately. About 200 ml of distilled water were added with stirring to obtain a clear solution with a pH of 8. […] It melted sharply at 62° C.

pH of water dispersion = assay type: physicochemical
Experimental: as §3
After standing for 4 hours, a white, opaque, uniform thin liquid was obtained. The pH of the liquid was 6. The bottle was then shaken vigorously for several minutes. The contents of the bottle changed to a foamy, motionless, thick gel that totally filled the bottle. After standing overnight, the gel remained the same, still filling the bottle. But after standing for 48 hours, the gel reverted to the original thin liquid. Upon shaking the bottle again, the thick gel reappeared.

[3] = tested on: Salmonella enterica ATCC 10708; test: AOAC International Use-Dilution Method (hard surface disinfectant, steel penicylinders); assay type: cell-based; details: 2% dispersion, ten minutes exposure
[4] = tested on: Staphylococcus aureus ATCC 6538; test: ASTM International Method E2315 assessment of antibacterial activity (time kill in suspension); assay type: cell-based; details: for percent reduction in bacteria: 1% dispersion in water; for percent reduction of the test bacteria: pH 6, 30 seconds contact time
Experimental: as §1, with “[…].” for “Following ASTM International Method E2315 for assessment of antibacterial activity, 10 ml of this uniform mixture was aliquoted into a sterile vessel to produce a 1% dispersion that was then inoculated with the Gram-positive bacterium Staphylococcus aureus ATCC 6538 at 25° C. for a target concentration of 1×10^6 CFU (cells)/ml.”

[5] = tested on: Enterococcus faecalis 29212; test: ASTM E2315 antibacterial activity; assay type: cell-based; details: 1% dispersion, 30 second contact time
Experimental: as §1
The same dispersion used in Examples 4 and 5 was tested against Gram-positive Enterococcus faecalis 29212 in the manner described in Example 2. After 30 second contact time, the bacterial reduction was >99.9986%.

Question: For `CCCCCCCCC(=O)O.N` [ammonium nonanoate], which “AOAC disinfectant test result” value (S. aureous) is on record?
Answer: no disinfectant properties

Question: And the “number of confirmed positive test tubes out of 60 carriers” value (S. aureous; pass = less than or equal to 3 positive carriers out of 60)?
Answer: 60

Question: What does the source list for `CCCCCCCCCC(=O)O` [capric acid]?
Answer: antimicrobial activity among fatty acids tested (Staphlycoccus aureous): highest activity; antimicrobial activity among fatty acids tested (Streptococcus Group A): highest activity; antimicrobial activity among fatty acids tested (Candida albicans): highest activity

Question: For ammonium di-nonanoate [Example 1], which “reduction of the test bacteria” value [1] is on record?
Answer: 99.995%

Question: What about the “reduction of the test bacteria” value (Escherichia coli 8739) of the same compound?
Answer: 99.9996%

Question: What about the “stability of water dispersion on storage” value [2] of the same compound?
Answer: remained unchanged in appearance after months of storage

Question: And the “pH of water dispersion” value (pH of water dispersion; 1% dispersion in distilled water)?
Answer: 6

Question: And the “pH of water dispersion” value (pH of water dispersion; 10% dispersion in distilled water)?
Answer: 6

Question: What about the “pH of water dispersion” value (pH of water dispersion; concentration not given) of the same compound?
Answer: 6

Question: What about the “AOAC disinfectant test result” value [3] of the same compound?
Answer: pass

Question: And the “number of positive test tubes (growth) out of 60 carriers” value ([3]; pass = less than or equal to 1 positive carrier out of 60)?
Answer: 0

Question: And the “percent reduction in bacteria count” value ([4]; 0.1% dispersion in water, 30-second contact time)?
Answer: 99.9997%

Question: What about the “percent reduction in bacteria” value ([4]; 30 seconds contact time) of the same compound?
Answer: 99.9997%

Question: And the “percent reduction in bacteria” value ([4]; 2 minutes contact time)?
Answer: 99.9997%

Question: What about the “percent reduction in bacteria” value ([4]; 10 minutes contact time) of the same compound?
Answer: 99.9997%

Question: What about the “percent reduction in bacteria” value ([4]; time zero, 25° C., 1×10^6 CFU/ml, 99.9997% = limit of detection) of the same compound?
Answer: 99.9997%

Question: What about the “percent reduction of the test bacteria” value ([4]; 1% dispersion of solid stored in a plastic container for over 5 years) of the same compound?
Answer: > 99.9997%

Question: And the bacterial reduction [5]?
Answer: > 99.9986%

Question: For ammonium di-octanoate [Example 10], which “pH of water dispersion” value (pH of water dispersion; 0.5% dispersion in distilled water) is on record?
Answer: 6

Question: And the “percent reduction of the test bacteria” value ([4]; 0.5% dispersion in water)?
Answer: > 99.988%
